From publication PMC13193388, “Dimerization‐dependent NOTCH receptor transactivation unveils a class of highly selective NOTCH signalling inhibitors” (The Febs Journal, 2025) come the findings set out here.

The target in one assay is T1, NOTCH3-ECD (Homo sapiens, UniProt Q9UM47).
T1 construct: we purified the complete (recombinant) N3 ECD from human tissue culture cells; made in house; host or cells: PEC.3.30 (modified Per.E2A human cells), purified from culture supernatant
Briefly: SPR peptide binding to immobilized recombinant NOTCH3-ECD. As for the experimental part: (§1) The NOTCH3‐ECD protein was produced using PEC.3.30, which is modified Per.E2A cells. DMEM cell supernatant containing the NOTCH3‐ECD protein was collected for purification. The supernatant was loaded onto a HisTrap high‐performance (HP) column (Cytiva, Uppsala, Sweden) and eluted with a gradient buffer that included 500 mM imidazole, 25 mM HEPES at pH 7.5 and 500 mM NaCl. The pooled fractions were concentrated using a 50 000 molecular weight cut‐off (MWCO) centrifugal filter (Millipore, Merck KGaA, Darmstadt, Germany), resulting in a buffer of 10 mM imidazole, 25 mM HEPES at pH 7.5 and 100 mM NaCl. The concentrated protein solution was subsequently loaded onto a Superdex 200 16/600 gel filtration column (Cytiva, Uppsala, Sweden), which was equilibrated with 25 mM HEPES at pH 7.5 and 100 mM NaCl. Similar yields of purified protein were obtained across all samples. The purified proteins were snap‐frozen in liquid nitrogen immediately after purification and stored at −80 °C.
Peptide binding to the NOTCH3‐ECD protein using SPR was performed using a Biacore T200. The NOTCH3‐ECD protein was immobilized onto a Biacore NTA Series S Sensor Chip (Cytiva), at a concentration of 0.1 μg·μL^−1 using Nickel‐NTA capture‐coupling, resulting in approximately 3500 RU of immobilized protein. Peptides were introduced using the ‘Eject rack’ function, followed by analysis. […]

Assay [1] concerns N2 receptor. Briefly: Ligand-dependent N2 receptor cleavage (western blot). Type of assay: cell-based, human. The note with it: 293 T cells with HA-N2, recombinant DLL1; n = 3. The protocol: (§2) Human embryonic kidney (HEK) 293 T cells (RRID:CVCL_0063) were cultured in Dulbecco's Modified Eagle Medium (DMEM) (Gibco, Grand Island, NY, USA) supplemented with 10% fetal bovine serum (FBS) (Gibco). This cell line was obtained from the American Type Culture Collection (ATCC, Manassas, VA, USA). T‐ALL cell lines (kindly provided by Professor Jan Cools – VIB, Leuven): MOLT4 (RRID:CVCL_0013), ALL SIL (RRID:CVCL_1805), DND‐41 (RRID:CVCL_2022), HPB‐ALL (RRID:CVCL_1820), SUP‐T1 (RRID:CVCL_1714) and JURKAT (RRID:CVCL_0065), were cultured in Roswell Park Memorial Institute (RPMI) 1640 medium (Gibco) supplemented with 10% FBS (Gibco). Cells were maintained in a 5% CO2, 37 °C humidified incubator, tested monthly for mycoplasma contamination using a MycoAlert kit (Lonza, Walkersville, MD, USA), and checked for authenticity, in the last 3 years, by an in‐house service using short tandem repeat (STR) profiling. Transfections, lentivirus production and cell infections, western blotting and co‐immunoprecipitations have been described previously. […] RNA isolation, first‐strand cDNA synthesis and analysis of expression of transcripts by quantitative (q) PCR were performed as described previously. […] Expression of these proteins was determined using antibodies directed against either the coding region of the protein or the epitope tag. […]

Assay [2] relates to N2 receptor. Briefly: N2 transactivation luciferase reporter assay. Type of assay: cell-based, human. The note with it: Fig. 4A,E, n = 3. The protocol: (§3) Reporter assays were performed as previously described. Briefly, stable cell lines expressing epitope‐tagged ligands and receptors were established via infection of cells with lentiviruses harbouring the appropriate ligand/receptor cDNA followed by selection with the encoded antibiotic (puromycin or neomycin). For transactivation assays, cells co‐expressing receptor and reporter were cocultured with cells stably expressing ligand alone (to enable transactivation). […] For each experiment, cells were seeded in triplicate in 12‐well plates. The NOTCH luciferase reporter harboured 10× Recombination Signal Binding Protein for Immunoglobulin kappa J (RBPJ) consensus DNA‐binding sites, and was cotransfected with thymidine kinase promoter‐driven Renilla luciferase control plasmid. Additionally, transfection efficiencies (routinely > 90%) were determined through visualization of cotransfected plasmid encoding the Tomato fluorescence reporter. Cells were lysed 36 h postplating, and luciferase activity was measured using a luciferase assay substrate (Promega). Luciferase activity was normalized by measuring Renilla luciferase activity (Promega). Where indicated, assays were performed in the presence or absence of 10 μM DAPT (Sigma‐Aldrich, St. Louis, MO, USA). Receptor and ligand protein levels were determined by western blotting. Experiments were performed three times. […]

In assay [3] the test system is N2 receptor. Briefly: N2 receptor dimerization (immobilized HIS-N2 with HA-N2, western blot). The note with it: HIS-N2 on nickel beads with HA-N2, western blot; n = 3. Type of assay: biochemical, human. As for the experimental part:
as §2, with “(Gibco).” for “(Gibco). Cells were maintained in a 5% CO2, 37 °C humidified incubator, tested monthly for mycoplasma contamination using a MycoAlert kit (Lonza, Walkersville, MD, USA), and checked for authenticity, in the last 3 years, by an in‐house service using short tandem repeat (STR) profiling. Transfections, lentivirus production and cell infections, western blotting and co‐immunoprecipitations have been described previously.”
(§4) Domains for recombinant protein production were cloned into the pET 28a vector in‐frame to an N‐terminal HIS6 epitope. […] Protein yields were determined by Bradford assay (Bio‐Rad, Hercules, CA, USA), and relative protein integrity and purity were determined by SDS/PAGE and Colloidal Blue staining (Invitrogen, Carlsbad, CA, USA). […] Proteins were separated by SDS/PAGE and associated proteins were detected by western blotting.

The next assay concerns N3 ECD homodimer. The experiment in a line: Nondenaturing gel: disruption of purified N3 ECD homodimer. It counts as biochemical, human. The note with it: nondenaturing acrylamide gel, purified HIS-tagged N3 ECD; n = 3. As for the experimental part: as §1
In assay [4] the test system is N3 receptor. Briefly: N3 downstream NOTCH target gene expression (real-time qPCR). Type of assay: cell-based, human. The note with it: 293 T cells with HA-N3, recombinant DLL1, 3 h, n = 3. As for the experimental part: as §2
The test system of assay [5] is N2 receptor. Briefly: Cell surface ligand-N2 receptor binding assay. Type of assay: cell-based, human. The conditions noted are these: Fig. 4D; n = 3. As for the experimental part: (§5) Confluent 10‐cm dishes of 293 T cells stably expressing HA epitope‐tagged NOTCH receptors were washed with ice‐cold phosphate buffered saline (PBS)/bovine serum albumen (BSA) (1 mg·mL^−1). Cells were stimulated with 50 μL of ligand (0.5 mg·mL^−1) in the presence of 1.5 mL of PBS/BSA (1 mg·mL^−1) for 1 h, with gentle shaking, at 4 °C. Cells were washed once with PBS. Cells were incubated with crosslinkers in the presence of 2 mL of ice‐cold PBS for 15 min, with gentle shaking at 4 °C: 0.27 μM disuccinimidyl suberate (DSS) (Pierce, Rockford, IL, USA) and 0.07 μM bis‐sulfosuccinimidyl suberate (BS3) (Pierce). Cells were washed once with ice‐cold detachment buffer (10 mM Tris–HCl pH 7.4, 1 mM EDTA pH 7.4, 10% glycerol), scraped off the plates in 1 mL of detachment buffer and transferred to Eppendorf tubes. Cell pellets were lysed in 1 mL of solubilization buffer (125 mM NaCl, 10 mM Tris–HCl pH 7.4, 1 mM EDTA pH 7.4, 1% Triton X‐100) on ice for 30 min and centrifuged at 13000 r.p.m. for 10 min. Supernatants were incubated with HA antibody (Covance, Princeton, NJ, USA) overnight at 4 °C. 50 μL of washed (4×) protein A/G beads (50% solution) was added, and samples were incubated for 45 min at 4 °C. The beads were washed four times with solubilization buffer. 50 μL of sample buffer was added and samples were boiled for 5–10 min prior to gel electrophoresis. […]

The test system of assay [6] is N3 receptor. Briefly: Ligand-dependent N3 receptor cleavage (western blot). The conditions noted are these: 293 T cells, recombinant DLL1, peptides 10 μM unless otherwise stated. Type of assay: cell-based, human. The protocol:
as §2

Assay [7] has as its system N3 receptor. Briefly: N3 transactivation luciferase reporter assay. It counts as cell-based, human. The protocol:
as §3

The next assay deals with NOTCH receptors. Briefly: Endogenous HEY expression in 293 T cells expressing NOTCH receptors (real-time qPCR). The conditions noted are these: 3 h, DAPT 20 μM, n = 3 (Fig. 4F). It counts as cell-based, human. The protocol:
as §2

For assay [8], the system named is N3 receptor. The experiment in a line: N3 receptor dimerization (immobilized HIS-N3 with HA-N3, western blot). It counts as biochemical, human. The note with it: peptides 10 μM unless otherwise stated, n = 3. The protocol: as §2, with “(Gibco).” for “(Gibco). Cells were maintained in a 5% CO2, 37 °C humidified incubator, tested monthly for mycoplasma contamination using a MycoAlert kit (Lonza, Walkersville, MD, USA), and checked for authenticity, in the last 3 years, by an in‐house service using short tandem repeat (STR) profiling. Transfections, lentivirus production and cell infections, western blotting and co‐immunoprecipitations have been described previously.”
as §4

The subject of assay [9] is N3 receptor. Briefly: Cell surface ligand-N3 receptor binding assay. It counts as cell-based, human. The note with it: 293 T cells stably expressing HA-tagged N3, crosslinked, western blot; n = 3. As for the experimental part: as §5

Entries after “also recorded” stand apart in the source; their conditions may differ.

T1 sequence (Q9UM47 40-1643 limits assumed): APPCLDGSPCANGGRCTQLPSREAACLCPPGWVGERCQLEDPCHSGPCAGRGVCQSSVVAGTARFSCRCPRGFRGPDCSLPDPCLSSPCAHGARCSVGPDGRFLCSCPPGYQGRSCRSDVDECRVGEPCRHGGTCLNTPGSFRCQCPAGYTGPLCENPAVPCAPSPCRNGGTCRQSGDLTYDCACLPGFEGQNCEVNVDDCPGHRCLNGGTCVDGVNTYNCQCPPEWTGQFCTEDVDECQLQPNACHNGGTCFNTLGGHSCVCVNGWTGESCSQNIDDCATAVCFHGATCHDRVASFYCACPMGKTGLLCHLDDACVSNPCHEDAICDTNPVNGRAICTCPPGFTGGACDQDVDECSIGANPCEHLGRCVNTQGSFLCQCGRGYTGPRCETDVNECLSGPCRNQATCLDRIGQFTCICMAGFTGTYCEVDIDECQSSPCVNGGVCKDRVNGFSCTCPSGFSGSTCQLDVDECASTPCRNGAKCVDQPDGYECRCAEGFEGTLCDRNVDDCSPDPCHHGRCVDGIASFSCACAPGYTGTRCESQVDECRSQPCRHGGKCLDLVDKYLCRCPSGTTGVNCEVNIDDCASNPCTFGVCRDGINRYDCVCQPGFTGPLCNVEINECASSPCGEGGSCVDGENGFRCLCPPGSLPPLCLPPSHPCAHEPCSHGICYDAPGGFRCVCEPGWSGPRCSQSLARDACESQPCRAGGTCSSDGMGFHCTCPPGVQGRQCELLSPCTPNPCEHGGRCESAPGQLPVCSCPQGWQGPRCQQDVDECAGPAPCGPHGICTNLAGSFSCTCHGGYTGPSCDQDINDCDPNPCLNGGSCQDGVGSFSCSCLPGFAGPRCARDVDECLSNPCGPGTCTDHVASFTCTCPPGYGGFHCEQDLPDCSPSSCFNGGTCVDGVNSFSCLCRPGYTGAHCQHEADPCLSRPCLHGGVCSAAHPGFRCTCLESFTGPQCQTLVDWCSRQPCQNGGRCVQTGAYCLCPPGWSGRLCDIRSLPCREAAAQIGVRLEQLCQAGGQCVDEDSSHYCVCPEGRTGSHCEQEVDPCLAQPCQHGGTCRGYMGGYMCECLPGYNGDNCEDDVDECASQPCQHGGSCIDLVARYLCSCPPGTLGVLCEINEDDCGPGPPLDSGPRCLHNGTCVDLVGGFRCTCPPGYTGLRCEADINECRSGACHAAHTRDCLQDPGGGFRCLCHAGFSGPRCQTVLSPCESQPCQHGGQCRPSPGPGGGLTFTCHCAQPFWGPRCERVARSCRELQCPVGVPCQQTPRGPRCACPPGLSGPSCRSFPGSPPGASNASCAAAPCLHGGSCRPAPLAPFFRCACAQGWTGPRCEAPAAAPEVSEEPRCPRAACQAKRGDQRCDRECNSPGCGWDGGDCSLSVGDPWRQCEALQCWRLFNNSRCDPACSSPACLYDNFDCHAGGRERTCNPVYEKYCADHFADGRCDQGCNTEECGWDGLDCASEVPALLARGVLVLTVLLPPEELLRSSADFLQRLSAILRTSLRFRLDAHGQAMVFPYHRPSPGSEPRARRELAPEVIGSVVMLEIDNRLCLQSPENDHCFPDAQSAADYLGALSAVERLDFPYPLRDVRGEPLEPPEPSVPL

Regarding “EKYGGGHFADGR [control peptide, control peptide (…), core of the dimerization motif mutated (to glycine), reference compound]”, the “binding to N3 ECD” value on NOTCH3-ECD (control peptide with motif core mutated to glycine) is “failed to bind efficiently to the N3 ECD”.
As for “EKYCADHFADGR [N34, N3 peptide (…) centred on the helix encompassing the core dimerization motif]”, the “K D (range in words)” value on NOTCH3-ECD (pure recombinant N3 ECD purified from human cells) is “low nM range”. For the same sequence, in the assay on N2 receptor [1], the “effect on N2 receptor cleavage” value is “little detectable effect”. Also, the “effect on N2 receptor transactivation / downstream gene activation” value in the assay on N2 receptor [2] is “little detectable effect”. For the same sequence, the “effect on N2 receptor dimerization” value in the assay with N2 receptor [3] is “little detectable effect”. Moreover, in the assay with N3 ECD homodimer, the “disruption of N3 ECD homodimer” value is given as “disrupted”. In the assay on N3 receptor [4], the “inhibition of downstream NOTCH target genes (N3)” value was “robustly inhibit”. Besides, the “effect on stable N2 receptor-ligand binding at the cell surface” value in the assay with N2 receptor [5] was “little detectable effect”. The “inhibition of ligand-dependent N3 receptor cleavage” value in the assay on N3 receptor [6] is listed as “robustly inhibit”. The “selectivity for N3 over N2 and N1” value in the assay on N3 receptor [7] (Fig. 4E) was “exquisite selectivity for N3 (and not N2 or N1”. In the assay on N3 receptor [7] (coculture with ligand cells, lysed 36 h postplating, peptides 10 μM unless otherwise stated, n = 3), the “inhibition of N3 transactivation (NOTCH reporter)” value was “robustly inhibit; also recorded: inhibited N3 receptor activity”. The “suppression of NOTCH-driven gene expression compared to DAPT” value in the assay on NOTCH receptors is recorded as “as efficiently as the generic gamma secretase inhibitor (GSI), DAPT”. In addition, in the assay with N3 receptor [8], the “inhibition of N3 receptor dimerization” value is listed as “robustly inhibit”. Moreover, the “block of stable ligand-receptor binding at the cell surface (N3)” value with N3 receptor [9] is recorded as “efficiently blocked”.
